Results from patent US10660877B2 (BRISTOL-MYERS SQUIBB COMPANY, priority 2016, dated 2020).
Where two headings read alike, the source gives them in different places.

How the values were obtained:
human TLR8 = human TLR8 (Homo sapiens (Human), UniProt Q9NR97); assay: TLR8 inhibition reporter assay (HEK-Blue cells, SEAP reporter, R848 stimulation);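 note: compounds tested from 0.05 nM to 50 µM, 22 h at 37 °C, SEAP measured with HEK-Blue Detection, inhibition relative to agonist plus DMSO versus a known inhibitor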
Chain of human TLR8 (Q9NR97 27-1041): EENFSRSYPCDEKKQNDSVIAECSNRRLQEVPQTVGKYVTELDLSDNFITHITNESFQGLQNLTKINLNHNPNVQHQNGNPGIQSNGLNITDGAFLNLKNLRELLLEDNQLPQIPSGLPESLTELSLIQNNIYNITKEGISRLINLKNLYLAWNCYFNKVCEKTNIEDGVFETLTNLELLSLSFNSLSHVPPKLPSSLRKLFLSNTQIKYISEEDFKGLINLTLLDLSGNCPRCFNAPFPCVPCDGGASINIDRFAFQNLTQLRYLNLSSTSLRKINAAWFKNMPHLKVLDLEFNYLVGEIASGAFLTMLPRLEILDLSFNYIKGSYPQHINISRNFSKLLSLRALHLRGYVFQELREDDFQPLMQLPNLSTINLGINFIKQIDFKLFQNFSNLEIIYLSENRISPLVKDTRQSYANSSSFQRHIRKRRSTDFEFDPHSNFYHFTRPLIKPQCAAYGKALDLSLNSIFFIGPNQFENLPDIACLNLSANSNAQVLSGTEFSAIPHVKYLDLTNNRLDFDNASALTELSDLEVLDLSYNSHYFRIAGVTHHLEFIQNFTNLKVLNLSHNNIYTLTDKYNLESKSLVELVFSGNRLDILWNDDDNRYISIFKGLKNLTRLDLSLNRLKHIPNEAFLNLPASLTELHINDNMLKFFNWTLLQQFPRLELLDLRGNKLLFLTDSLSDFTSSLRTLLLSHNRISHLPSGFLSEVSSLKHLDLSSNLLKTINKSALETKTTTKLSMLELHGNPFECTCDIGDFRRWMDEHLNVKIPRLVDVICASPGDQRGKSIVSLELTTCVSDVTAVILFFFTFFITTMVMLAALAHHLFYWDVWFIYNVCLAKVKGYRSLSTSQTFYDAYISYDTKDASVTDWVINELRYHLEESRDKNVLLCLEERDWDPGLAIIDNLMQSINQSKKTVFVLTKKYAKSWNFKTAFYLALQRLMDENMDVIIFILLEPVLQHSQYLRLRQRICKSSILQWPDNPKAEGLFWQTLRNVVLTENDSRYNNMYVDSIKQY

human TLR7 = human TLR7 (Homo sapiens (Human), UniProt Q9NYK1); assay: TLR7 inhibition reporter assay (HEK-Blue cells, SEAP reporter, gardiquimod stimulation); assay type: cell-based
Chain of human TLR7 (Q9NYK1 27-1049): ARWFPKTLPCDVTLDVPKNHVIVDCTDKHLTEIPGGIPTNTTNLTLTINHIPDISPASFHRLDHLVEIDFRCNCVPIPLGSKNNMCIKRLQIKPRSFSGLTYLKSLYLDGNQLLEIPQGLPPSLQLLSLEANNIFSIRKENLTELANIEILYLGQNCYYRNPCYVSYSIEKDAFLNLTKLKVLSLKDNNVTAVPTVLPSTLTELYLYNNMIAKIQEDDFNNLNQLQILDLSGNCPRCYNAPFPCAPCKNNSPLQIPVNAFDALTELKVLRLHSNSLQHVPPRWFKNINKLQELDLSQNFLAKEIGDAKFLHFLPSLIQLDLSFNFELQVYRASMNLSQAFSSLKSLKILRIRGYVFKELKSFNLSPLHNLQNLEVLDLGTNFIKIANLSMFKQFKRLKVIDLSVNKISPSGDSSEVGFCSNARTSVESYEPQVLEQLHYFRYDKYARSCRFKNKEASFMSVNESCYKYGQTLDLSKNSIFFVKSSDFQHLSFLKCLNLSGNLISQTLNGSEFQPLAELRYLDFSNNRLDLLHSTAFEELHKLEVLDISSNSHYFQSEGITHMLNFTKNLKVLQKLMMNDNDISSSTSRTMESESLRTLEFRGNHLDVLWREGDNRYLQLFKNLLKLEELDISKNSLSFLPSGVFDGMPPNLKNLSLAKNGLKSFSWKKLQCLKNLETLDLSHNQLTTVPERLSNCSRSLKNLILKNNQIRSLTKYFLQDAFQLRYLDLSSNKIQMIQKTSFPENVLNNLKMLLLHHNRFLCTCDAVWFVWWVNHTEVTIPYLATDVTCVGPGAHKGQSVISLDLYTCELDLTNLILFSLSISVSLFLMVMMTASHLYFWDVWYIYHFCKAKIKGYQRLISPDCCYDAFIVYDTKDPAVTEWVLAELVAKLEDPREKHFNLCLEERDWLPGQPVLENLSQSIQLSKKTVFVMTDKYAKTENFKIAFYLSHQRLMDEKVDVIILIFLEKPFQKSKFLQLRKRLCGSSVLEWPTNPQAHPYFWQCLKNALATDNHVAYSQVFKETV

human TLR9 = human TLR9 (Homo sapiens (Human), UniProt Q9NR96); assay: TLR9 inhibition reporter assay (HEK-Blue cells, SEAP reporter, ODN2006 stimulation);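 note: compounds tested over 0.05 nM to 50 µM, 22 h incubation, inhibition taken as SEAP signal drop from agonist plus DMSO wells toward a known inhibitor control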
Chain of human TLR9 (Q9NR96 26-1032): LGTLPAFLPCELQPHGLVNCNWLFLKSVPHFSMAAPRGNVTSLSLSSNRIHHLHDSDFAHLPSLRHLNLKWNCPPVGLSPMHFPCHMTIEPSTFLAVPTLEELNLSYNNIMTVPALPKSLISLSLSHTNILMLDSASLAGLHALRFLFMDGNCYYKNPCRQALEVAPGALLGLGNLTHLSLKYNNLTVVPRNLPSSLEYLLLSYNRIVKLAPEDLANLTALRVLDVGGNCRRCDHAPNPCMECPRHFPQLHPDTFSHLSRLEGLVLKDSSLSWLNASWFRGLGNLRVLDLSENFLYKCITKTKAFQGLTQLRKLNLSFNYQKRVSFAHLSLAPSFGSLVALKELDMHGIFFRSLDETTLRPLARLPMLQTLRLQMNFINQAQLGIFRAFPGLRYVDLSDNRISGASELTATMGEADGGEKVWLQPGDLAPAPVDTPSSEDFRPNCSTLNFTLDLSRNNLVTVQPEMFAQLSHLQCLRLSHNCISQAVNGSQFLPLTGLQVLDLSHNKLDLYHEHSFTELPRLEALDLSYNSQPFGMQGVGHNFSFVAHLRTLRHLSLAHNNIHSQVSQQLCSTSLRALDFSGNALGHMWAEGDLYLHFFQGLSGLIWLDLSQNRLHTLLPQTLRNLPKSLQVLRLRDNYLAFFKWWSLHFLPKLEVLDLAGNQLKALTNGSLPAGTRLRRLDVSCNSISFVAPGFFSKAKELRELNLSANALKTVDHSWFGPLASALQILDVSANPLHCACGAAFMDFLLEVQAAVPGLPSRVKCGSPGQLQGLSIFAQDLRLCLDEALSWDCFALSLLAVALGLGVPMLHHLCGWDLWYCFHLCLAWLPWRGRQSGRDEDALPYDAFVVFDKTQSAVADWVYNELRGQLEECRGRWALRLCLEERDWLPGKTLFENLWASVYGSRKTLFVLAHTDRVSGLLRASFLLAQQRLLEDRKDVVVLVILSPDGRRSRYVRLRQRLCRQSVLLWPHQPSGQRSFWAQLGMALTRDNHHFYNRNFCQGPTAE

[1] = read-out: TLR8 IC50, HEK-Blue cells overexpressing human TLR8, R848 15.9 μM
[2] = HEK-Blue cells overexpressing human TLR7, gardiquimod 7.5 μM
[3] = read-out: TLR9 IC50, HEK-Blue cells overexpressing human TLR9, ODN2006 5 nM
[4] = TLR8 IC50, HEK-Blue cells overexpressing human TLR8, R848 15.9 μM
[5] = TLR9 IC50, HEK-Blue cells overexpressing human TLR9, ODN2006 5 nM
[6] = read-out: TLR8 IC50, HEK-Blue cells, R848 15.9 μM
[7] = HEK-Blue cells, gardiquimod 7.5 μM
[8] = read-out: TLR9 IC50, HEK-Blue cells, ODN2006 5 nM

Structure (SMILES) | IC50 (human TLR8; [1]) | IC50 (human TLR7; [2]) | IC50 (human TLR9; [3]) | IC50 (human TLR8; [4]) | IC50 (human TLR9; [5]) | IC50 (human TLR8; [6]) | IC50 (human TLR7; [7]) | IC50 (human TLR9; [8])
Cc1cc(-c2[nH]c3ccc(C4CCN(CC(=O)NC(C)C)CC4)cc3c2C(C)C)cc(C)n1 [Example 218, 2-(4-(2-(2,6-dimethylpyridin-4-yl)-3-isopropyl-1H-indol-5-yl)piperidin-1-yl)-N-isopropylacetamide] | 10.5 nM | 4.9 nM | 949 nM | – | – | – | – | –
Cc1cc(-c2[nH]c3ccc(C4CCN(C(=O)CN(C)Cc5cc(C)on5)CC4)cc3c2C(C)C)cc(C)n1 [Example 417, 1-(4-(2-(2,6-dimethylpyridin-4-yl)-3-isopropyl-1H-indol-5-yl)piperidin-1-yl)-2-(methyl((5-methylisoxazol-3-yl)methyl)amino)ethan-1-one] | 72.3 nM | 10.3 nM | 9380 nM | – | – | – | – | –
Cc1cc(-c2[nH]c3ccc(C4CCN(C(=O)CN5C(C)CCC5C)CC4)cc3c2C(C)C)cc(C)n1 (stereo not drawn) [Example 368, 1-(4-(2-(2,6-dimethylpyridin-4-yl)-3-isopropyl-1H-indol-5-yl)piperidin-1-yl)-2-(2,5-dimethylpyrrolidin-1-yl)ethan-1-one] | 21 nM | 4.5 nM | 742 nM | – | – | – | – | –
Cc1cc(-c2[nH]c3ccc(C4CCN(C(=O)C5CCN(Cc6ccccc6)C5)CC4)cc3c2C(C)C)ccn1 (stereo not drawn) [Example 575, (1-benzylpyrrolidin-3-yl)(4-(3-isopropyl-2-(2-methylpyridin-4-yl)-1H-indol-5-yl)piperidin-1-yl)methanone] | 18.5 nM | 34 nM | 1060 nM | – | – | – | – | –
COC(=O)N1CCC(c2ccc3[nH]c(-c4ccnc(C)c4)c(C(C)C)c3c2)CC1 [Example 562, methyl 4-(3-isopropyl-2-(2-methylpyridin-4-yl)-1H-indol-5-yl) piperidine-1-carboxylate] | 1400 nM | 287 nM | > 50000 nM | – | – | – | – | –
Cc1cc(-c2[nH]c3ccc(C4CCN(Cc5ncn(C)n5)CC4)cc3c2C(C)C)cc(C)n1 [Example 451, 2-(2,6-dimethylpyridin-4-yl)-3-isopropyl-5-(1-((1-methyl-1H-1,2,4-triazol-3-yl)methyl)piperidin-4-yl)-1H-indole] | 12.2 nM | 5.9 nM | 1560 nM | – | – | – | – | –
CCC(CC)N1CCC(c2ccc3[nH]c(-c4cc(C)nc(C)c4)c(C(C)C)c3c2)CC1 [Example 436, 2-(2,6-dimethylpyridin-4-yl)-3-isopropyl-5-(1-(pentan-3-yl)piperidin-4-yl)-1H-indole] | 4.7 nM | 4.5 nM | 94 nM | – | – | – | – | –
Cc1cc(-c2[nH]c3ccc(C4CCN(C5COC5)CC4)cc3c2C(C)C)c(F)cn1 [Example 721, 2-(5-fluoro-2-methylpyridin-4-yl)-3-isopropyl-5-(1-(oxetan-3-yl)piperidin-4-yl)-1H-indole] | 7.4 nM | 13.8 nM | 19800 nM | – | – | – | – | –
Cc1cc(-c2[nH]c3ccc(C4CCN(S(=O)(=O)c5cccnc5)CC4)cc3c2C(C)C)ccn1 [Example 543, 3-isopropyl-2-(2-methylpyridin-4-yl)-5-(1-(pyridin-3-ylsulfonyl)piperidin-4-yl)-1H-indole] | 206 nM | 119 nM | 9750 nM | – | – | – | – | –
Cc1cc(-c2[nH]c3ccc(C4CCN(CC(=O)N(C)C)CC4)cc3c2C(C)C)c(C)cn1 [Example 642, 2-(4-(2-(2,5-dimethylpyridin-4-yl)-3-isopropyl-1H-indol-5-yl)piperidin-1-yl)-N,N-dimethylacetamide] | 5.6 nM | 16.1 nM | 4100 nM | – | – | – | – | –
Cc1cc(-c2[nH]c3ccc(C4CCN(CCO)CC4)cc3c2C(C)C)c(F)cn1 [Example 647, 2-(4-(2-(5-fluoro-2-methylpyridin-4-yl)-3-isopropyl-1H-indol-5-yl)piperidin-1-yl)ethan-1-ol] | 2.3 nM | 3.9 nM | 2660 nM | – | – | – | – | –
CCc1c(-c2ccncc2)[nH]c2ccc(C3CCN(C4CC(C)(C)NC(C)(C)C4)CC3)cc12 [Example 807, 3-ethyl-2-(pyridin-4-yl)-5-(2′,2′,6′,6′-tetramethyl-[1,4′-bipiperidin]-4-yl)-1H-indole] | 8.6 nM | 226 nM | 117 nM | – | – | – | – | –
Cc1nccc(-c2[nH]c3ccc(C4CCN(C5CCOCC5)CC4)cc3c2C(C)C)c1C [Example 716, 2-(2,3-dimethylpyridin-4-yl)-3-isopropyl-5-(1-(tetrahydro-2H-pyran-4-yl)piperidin-4-yl)-1H-indole] | 73.3 nM | 144 nM | 1900 nM | – | – | – | – | –
CCNC(=O)CN1CCC(c2ccc3[nH]c(-c4cc(C)nc(C)c4)c(C(C)C)c3c2)CC1 [Example 235, 2-(4-(2-(2,6-dimethylpyridin-4-yl)-3-isopropyl-1H-indol-5-yl)piperidin-1-yl)-N-ethylacetamide] | – | 5.2 nM | – | 14.1 nM | 965 nM | – | – | –
Cc1cc(-c2[nH]c3ccc(C4CCN(CC(=O)N(CCO)C(C)C)CC4)cc3c2C(C)C)cc(C)n1 [Example 299, 2-(4-(2-(2,6-dimethylpyridin-4-yl)-3-isopropyl-1H-indol-5-yl)piperidin-1-yl)-N-(2-hydroxyethyl)-N-isopropylacetamide] | 112 nM | 24 nM | 2630 nM | – | – | – | – | –
Cc1cc(-c2[nH]c3ccc(C4CCN(CC(=O)NC56C[C@@H]7C[C@@H](CC(O)(C7)C5)C6)CC4)cc3c2C(C)C)cc(C)n1 [Example 225, 2-(4-(2-(2,6-dimethylpyridin-4-yl)-3-isopropyl-1H-indol-5-yl)piperidin-1-yl)-N-((1r,3 s,5R,7S)-3-hydroxyadamantan-1-yl)acetamide] | 26.8 nM | 11.6 nM | 651 nM | – | – | – | – | –
CNCCN1CCC(c2ccc3[nH]c(-c4ccnc(C)c4)c(C)c3c2)CC1 [Example 815, N-methyl-2-(4-(3-methyl-2-(2-methylpyridin-4-yl)-1H-indol-5-yl)piperidin-1-yl)ethan-1-amine] | – | – | – | – | – | 73.4 nM | 124 nM | 313 nM
CO[C@@H]1C[C@H](CO)N(CC(=O)N2CCC(c3ccc4[nH]c(-c5cc(C)nc(C)c5)c(C(C)C)c4c3)CC2)C1 [Example 395, 1-(4-(2-(2,6-dimethylpyridin-4-yl)-3-isopropyl-1H-indol-5-yl)piperidin-1-yl)-2-((2R,4R)-2-(hydroxymethyl)-4-methoxypyrrolidin-1-yl)ethan-1-one] | 41.1 nM | 9.7 nM | 995 nM | – | – | – | – | –
Cc1cc(-c2[nH]c3ccc(C4CCN(C(=O)C(F)F)CC4)cc3c2C(C)C)cc(C)n1 [Example 105, 1-(4-(2-(2,6-dimethylpyridin-4-yl)-3-isopropyl-1H-indol-5-yl)piperidin-1-yl)-2,2-difluoroethan-1-one] | – | 3.3 nM | – | 21.8 nM | 12000 nM | – | – | –
Cc1cc(-c2[nH]c3ccc(C4CCN(CC(N)=O)CC4)cc3c2C(C)C)c(C)cn1 [Example 651, 2-(4-(2-(2,5-dimethylpyridin-4-yl)-3-isopropyl-1H-indol-5-yl)piperidin-1-yl)acetamide] | 2.1 nM | 5.3 nM | 3740 nM | – | – | – | – | –
Cc1cc(-c2[nH]c3ccc(C4CCN(C5CCCOC5)CC4)cc3c2C(C)C)ccn1 (stereo not drawn) [Example 718, 3-isopropyl-2-(2-methylpyridin-4-yl)-5-(1-(tetrahydro-2H-pyran-3-yl)piperidin-4-yl)-1H-indole] | 6.1 nM | 22.8 nM | 855 nM | – | – | – | – | –
Cc1cc(-c2[nH]c3ccc(C4CCN(C5CCOCC5)CC4)cc3c2C(C)C)ccn1 [Example 710, 3-isopropyl-2-(2-methylpyridin-4-yl)-5-(1-(tetrahydro-2H-pyran-4-yl)piperidin-4-yl)-1H-indole] | 3 nM | 8 nM | 554 nM | – | – | – | – | –
Cc1cc(-c2[nH]c3ccc(C4CCN(Cc5nn[nH]n5)CC4)cc3c2C(C)C)cc(C)n1 [Example 462, 5-(1-((2H-tetrazol-5-yl)methyl)piperidin-4-yl)-2-(2,6-dimethylpyridin-4-yl)-3-isopropyl-1H-indole] | 210 nM | 70.4 nM | 5260 nM | – | – | – | – | –
Cc1cc(-c2[nH]c3cc(F)c(C4CCN(C5CC(C)OC(C)C5)CC4)cc3c2C(C)C)cc(C)n1 (stereo not drawn) [Example 833, 2-(2,6-dimethylpyridin-4-yl)-5-(1-(2,6-dimethyltetrahydro-2H-pyran-4-yl)piperidin-4-yl)-6-fluoro-3-isopropyl-1H-indole] | – | – | – | – | – | 29.6 nM | 9.4 nM | 556 nM
Cc1cc(-c2[nH]c3ccc(C4CCN(C(=O)CN5CC(F)(F)C[C@H]5CO)CC4)cc3c2C(C)C)cc(C)n1 [Example 403, (S)-2-(4,4-difluoro-2-(hydroxymethyl)pyrrolidin-1-yl)-1-(4-(2-(2,6-dimethylpyridin-4-yl)-3-isopropyl-1H-indol-5-yl)piperidin-1-yl)ethan-1-one] | 209 nM | 14.6 nM | 17600 nM | – | – | – | – | –
Cc1cc(-c2[nH]c3ccc(C4CCN(Cc5ncco5)CC4)cc3c2C(C)C)cc(C)n1 [Example 449, 2-((4-(2-(2,6-dimethylpyridin-4-yl)-3-isopropyl-1H-indol-5-yl)piperidin-1-yl)methyl)oxazole] | 14.3 nM | 13.5 nM | 2930 nM | – | – | – | – | –
Cc1cc(-c2[nH]c3ccc(C4CCN(C(=O)[C@H]5CC[C@H](N)CC5)CC4)cc3c2C(C)C)ccn1 [Example 764, ((1r,4r)-4-aminocyclohexyl) (4-(3-isopropyl-2-(2-methylpyridin-4-yl)-1H-indol-5-yl)piperidin-1-yl)methanone] | 262 nM | 174 nM | 603 nM | – | – | – | – | –
